In brackets after ≈: the same amount, converted by molar mass.
Assays:
E. faecalis MGH-2 = assay: Antibacterial assay (Test A), microtitration MIC, Gram positive; assay type: cell-based; details: Gram Positive Bacteria, strain MGH-2; for MIC: Enterococcus faecalis, MGH2, read-out: Minimum Inhibitory Concentrations E. faecalis MGH-2
Procedure: (§1) The compounds of the present invention were tested against an assortment of Gram-negative and Gram-positive organisms using standard microtitration techniques (Cohen et. al., Antimicrob., 1985;28:766;Heifetz, et. al., Antimicrob., 1974;6: 124).

S pyogenes C203 = assay: as above; assay type: cell-based; details: Gram Positive Bacteria, strain C203; for MIC: read-out: Minimum Inhibitory Concentrations S pyogenes C203
Procedure: as §1

S. aureus UC-76 = assay: as above; assay type: cell-based; details: Gram Positive Bacteria, strain UC-76; for MIC: Staphylococcus aureus, UC76, read-out: Minimum Inhibitory Concentrations S. aureus UC-76
Procedure: as §1

E. coli Tol C = assay: Antibacterial assay (Test A), microtitration MIC, Gram negative; assay type: cell-based; details: for MIC: Escherichia coli, read-out: Minimum Inhibitory Concentrations E. coli Tol C
Procedure: as §1

M. catarrhalis BC3534 = assay: as above; assay type: cell-based; details: Gram Negative Bacteria, strain BC3534; for MIC: Moraxella catarrhalis, read-out: Minimum Inhibitory Concentrations M. catarrhalis BC3534
Procedure: as §1

H. influenzae HI3542 = assay: as above; assay type: cell-based; details: Gram Negative Bacteria, strain HI3542; for MIC: Haemophilus influenzae, read-out: Minimum Inhibitory Concentrations H. influenzae HI3542
Procedure: as §1

[1] = system: E. coli transcription and translation (TnT); assay type: biochemical

Row | Compound | Minimum Inhibitory Concentrations E. faecalis MGH-2 (E. faecalis MGH-2) | Minimum Inhibitory Concentrations S pyogenes C203 (S pyogenes C203) | Minimum Inhibitory Concentrations S. aureus UC-76 (S. aureus UC-76) | Minimum Inhibitory Concentrations E. coli Tol C (E. coli Tol C; Gram Negative Bacteria, strain Tol C) | Minimum Inhibitory Concentrations M. catarrhalis BC3534 (M. catarrhalis BC3534) | Minimum Inhibitory Concentrations H. influenzae HI3542 (H. influenzae HI3542) | Inhibitory concentration in E. coli cell-free transcription/translation (TnT) assay [1] | MIC (E. faecalis MGH-2) | MIC (S pyogenes C203) | MIC (S. aureus UC-76) | MIC (E. coli Tol C) | MIC (M. catarrhalis BC3534) | MIC (H. influenzae HI3542)
1 | 7-{7-[5-(Acetylamino-methyl)-2-oxo-oxazolidin-3-yl]-1,3,4,5-tetrahydro-benzo[c]azepin-2-yl}-1-cyclopropyl-8-difluoromethoxy-6-fluoro-4-oxo-1,4-dihydro-[1,8]naphthyridine-3-carboxylic Acid [Example 18] | 8 µg/mL | 0.06 µg/mL | 1 µg/mL | 16 µg/mL | 2 µg/mL | 0.06 µg/mL | – | – | – | – | – | – | –
2 | COc1c(N2CCCc3cc(N4C[C@H](CNC(C)=O)OC4=O)ccc3C2)c(F)c(C)c2c(=O)c(C(=O)O)cn(C3CC3)c12 (stereo in doubt) [Example 2, 7-{7-[5-(Acetylamino-methyl)-2-oxo-oxazolidin-3-yl]-1,3,4,5-tetrahydro-benzo[c]azepin-2-yl}-1-cyclopropyl-6-fluoro-8-methoxy-5-methyl-4-oxo-1,4-dihydro-quinoline-3-carboxylic Acid] | – | – | – | – | – | – | 9.6 µg/mL | 8 µg/mL (≈ 13.5 µM) | 8 µg/mL (≈ 13.5 µM) | 0.06 µg/mL (≈ 0.101 µM) | 16 µg/mL (≈ 27 µM) | 8 µg/mL (≈ 13.5 µM) | 0.06 µg/mL (≈ 0.101 µM)
3 | COc1c(N2CCCc3cc(N4C[C@H](CNC(C)=O)OC4=O)ccc3C2)c(F)cc2c(=O)c(C(=O)O)cn(C3CC3)c12 (stereo in doubt) [Example 4, 7-{7-[5-(Acetylamino-methyl)-2-oxo-oxazolidin-3-yl]-1,3,4,5-tetrahydro-benzo[c]azepin-2-yl}-1-cyclopropyl-6-fluoro-8-methoxy-4-oxo-1,4-dihydro-quinoline-3-carboxylic Acid] | – | – | – | – | – | – | 4.0 µg/mL | 1 µg/mL (≈ 1.73 µM) | 1 µg/mL (≈ 1.73 µM) | 0.06 µg/mL (≈ 0.104 µM) | 2 µg/mL (≈ 3.46 µM) | 0.5 µg/mL (≈ 0.864 µM) | 0.06 µg/mL (≈ 0.104 µM)
4 | CC(=O)NC[C@H]1CN(c2ccc3c(c2)CCCN(c2c(F)cc4c(=O)c(C(=O)O)cn(C5CC5)c4c2F)C3)C(=O)O1 (stereo in doubt) [Example 13, 7-{7-[5-(Acetylamino-methyl)-2-oxo-oxazolidin-3-yl]-1,3,4,5-tetrahydro-benzo[c]azepin-2-yl}-1-cyclopropyl-6,8-difluoro-4-oxo-1,4-dihydro-quinoline-3-carboxylic Acid] | – | – | – | – | – | – | 0.6 µg/mL | 8 µg/mL (≈ 14.1 µM) | 2 µg/mL (≈ 3.53 µM) | 0.5 µg/mL (≈ 0.883 µM) | 4 µg/mL (≈ 7.06 µM) | 1 µg/mL (≈ 1.77 µM) | 0.06 µg/mL (≈ 0.106 µM)
5 | CC(=O)NC[C@H]1CN(c2ccc3c(c2)CCCN(c2nc4c(cc2F)c(=O)c(C(=O)O)cn4C2CC2)C3)C(=O)O1 (stereo in doubt) [Example 15, 7-{7-[5-(Acetylamino-methyl)-2-oxo-oxazolidin-3-yl]-1,3,4,5-tetrahydro-benzo[c]azepin-2-yl}-1-cyclopropyl-6-fluoro-4-oxo-1,4-dihydro-[1,8]naphthyridine-3-carboxylic Acid] | – | – | – | – | – | – | – | 4 µg/mL (≈ 7.28 µM) | 4 µg/mL (≈ 7.28 µM) | 2 µg/mL (≈ 3.64 µM) | 4 µg/mL (≈ 7.28 µM) | 4 µg/mL (≈ 7.28 µM) | 0.06 µg/mL (≈ 0.109 µM)
6 | CC(=O)NC[C@H]1CN(c2ccc3c(c2)CCCN(c2c(F)cc4c(=O)c(C(=O)O)cn(C5CC5)c4c2Cl)C3)C(=O)O1 [Example 1, 7-{7-[5-(Acetylamino-methyl)-2-oxo-oxazolidin-3-yl]-1,3,4,5-tetrahydro-benzo[c]azepin-2-yl}-8-chloro-1-cyclopropyl-6-fluoro-4-oxo-1,4-dihydro-quinoline-3-carboxylic Acid] | – | – | – | – | – | – | 9.4 µg/mL | 1 µg/mL (≈ 1.72 µM) | 2 µg/mL (≈ 3.43 µM) | 0.06 µg/mL (≈ 0.103 µM) | 2 µg/mL (≈ 3.43 µM) | 0.25 µg/mL (≈ 0.429 µM) | 0.06 µg/mL (≈ 0.103 µM)
7 | CC(=O)NC[C@H]1CN(c2ccc3c(c2)CCCN(c2cc4c(c(C)c2F)c(=O)c(C(=O)O)cn4C2CC2)C3)C(=O)O1 [Example 3, 7-{7-[5-(Acetylamino-methyl)-2-oxo-oxazolidin-3-yl]-1,3,4,5-tetrahydro-benzo[c]azepin-2-yl}-1-cyclopropyl-6-fluoro-5-methyl-4-oxo-1,4-dihydro-quinoline-3-carboxylic Acid] | – | – | – | – | – | – | – | 32 µg/mL (≈ 56.9 µM) | 16 µg/mL (≈ 28.4 µM) | 1 µg/mL (≈ 1.78 µM) | 32 µg/mL (≈ 56.9 µM) | 16 µg/mL (≈ 28.4 µM) | 0.06 µg/mL (≈ 0.107 µM)
8 | CC(=O)NC[C@H]1CN(c2ccc3c(c2)CCCN(c2c(F)cc4c(=O)c(C(=O)O)cn5c4c2OCC5C)C3)C(=O)O1 (some centres unmarked) [Example 5, 9-{7-[5-(Acetylamino-methyl)-2-oxo-oxazolidin-3-yl]-1,3,4,5-tetrahydro-benzo[c]azepin-2-yl}-8-fluoro-3-methyl-6-oxo-2,3-dihydro-6 H-1-oxa-3a-aza-phenalene-5-carboxylic Acid] | – | – | – | – | – | – | 22.4 µg/mL | 32 µg/mL (≈ 56.7 µM) | 8 µg/mL (≈ 14.2 µM) | 1 µg/mL (≈ 1.77 µM) | 8 µg/mL (≈ 14.2 µM) | 2 µg/mL (≈ 3.54 µM) | 0.06 µg/mL (≈ 0.106 µM)
9 | COc1c(N2CCc3ccc(N4C[C@H](CNC(C)=O)OC4=O)cc3CC2)c(F)c(C)c2c(=O)c(C(=O)O)cn(C3CC3)c12 [Example 6, 7-{7-[5-(Acetylamino-methyl)-2-oxo-oxazolidin-3-yl]-1,2,4,5-tetrahydro-benzo[d]azepin-3-yl}-1-cyclopropyl-6-fluoro-8-methoxy-5-methyl-4-oxo-1,4-dihydro-quinoline-3-carboxylic Acid] | – | – | – | – | – | – | 9.6 µg/mL | 0.25 µg/mL (≈ 0.422 µM) | 0.25 µg/mL (≈ 0.422 µM) | 0.06 µg/mL (≈ 0.101 µM) | 2 µg/mL (≈ 3.37 µM) | 0.13 µg/mL (≈ 0.219 µM) | 0.06 µg/mL (≈ 0.101 µM)
10 | COc1c(N2CCc3ccc(N4C[C@H](CNC(C)=O)OC4=O)cc3CC2)c(F)cc2c(=O)c(C(=O)O)cn(C3CC3)c12 [Example 7, 7-{7-[5-(Acetylamino-methyl)-2-oxo-oxazolidin-3-yl]-1,2,4,5-tetrahydro-benzo[d]azepin-3-yl}-1-cyclopropyl-6-fluoro-8-methoxy-4-oxo-1,4-dihydro-quinoline-3-carboxylic Acid] | – | – | – | – | – | – | 11.8 µg/mL | 0.5 µg/mL (≈ 0.864 µM) | 1 µg/mL (≈ 1.73 µM) | 0.06 µg/mL (≈ 0.104 µM) | 2 µg/mL (≈ 3.46 µM) | 0.25 µg/mL (≈ 0.432 µM) | 0.06 µg/mL (≈ 0.104 µM)
11 | CC(=O)NC[C@H]1CN(c2ccc3c(c2)CCN(c2nc4c(cc2F)c(=O)c(C(=O)O)cn4-c2ccc(F)cc2F)CC3)C(=O)O1 [Example 8, 7-{7-[5-(Acetylamino-methyl)-2-oxo-oxazolidin-3-yl]-1,2,4,5-tetrahydro-benzo[d]azepin-3-yl}-1-(2,4-difluoro-phenyl)-6-fluoro-4-oxo-1,4-dihydro-[1,8]naphthyridine-3-carboxylic Acid] | – | – | – | – | – | – | 23.0 µg/mL | 16 µg/mL (≈ 25.7 µM) | 8 µg/mL (≈ 12.9 µM) | 0.5 µg/mL (≈ 0.804 µM) | 2 µg/mL (≈ 3.22 µM) | 2 µg/mL (≈ 3.22 µM) | 0.06 µg/mL (≈ 0.0965 µM)
12 | CC(=O)NC[C@H]1CN(c2ccc3c(c2)CCN(c2cc4c(cc2F)c(=O)c(C(=O)O)cn4C2CC2)CC3)C(=O)O1 [Example 9, 7-{7-[5-(Acetylamino-methyl)-2-oxo-oxazolidin-3-yl]-1,2,4,5-tetrahydro-benzo[d]azepin-3-yl}-1-cyclopropyl-6-fluoro-4-oxo-1,4-dihydro-quinoline-3-carboxylic Acid] | – | – | – | – | – | – | 13.0 µg/mL | 8 µg/mL (≈ 14.6 µM) | 4 µg/mL (≈ 7.29 µM) | 0.13 µg/mL (≈ 0.237 µM) | 4 µg/mL (≈ 7.29 µM) | 0.5 µg/mL (≈ 0.911 µM) | 0.06 µg/mL (≈ 0.109 µM)
13 | CC(=O)NC[C@H]1CN(c2ccc3c(c2)CCN(c2c(F)cc4c(=O)c(C(=O)O)cn(C5CC5)c4c2Cl)CC3)C(=O)O1 [Example 10, 7-{7-[5-(Acetylamino-methyl)-2-oxo-oxazolidin-3-yl]-1,2,4,5-tetrahydro-benzo[d]azepin-3-yl}-8-chloro-1-cyclopropyl-6-fluoro-4-oxo-1,4-dihydro-quinoline-3-carboxylic Acid] | – | – | – | – | – | – | 5.4 µg/mL | 0.25 µg/mL (≈ 0.429 µM) | 0.25 µg/mL (≈ 0.429 µM) | 0.06 µg/mL (≈ 0.103 µM) | 1 µg/mL (≈ 1.72 µM) | 0.13 µg/mL (≈ 0.223 µM) | 0.06 µg/mL (≈ 0.103 µM)
14 | CC(=O)NC[C@H]1CN(c2ccc3c(c2)CCN(c2cc4c(c(C)c2F)c(=O)c(C(=O)O)cn4C2CC2)CC3)C(=O)O1 [Example 11, 7-{7-[5-(Acetylamino-methyl)-2-oxo-oxazolidin-3-yl]-1,2,4,5-tetrahydro-benzo[d]azepin-3-yl}-1-cyclopropyl-6-fluoro-5-methyl-4-oxo-1,4-dihydro-quinoline-3-carboxylic Acid] | – | – | – | – | – | – | 10 µg/mL | 8 µg/mL (≈ 14.2 µM) | 16 µg/mL (≈ 28.4 µM) | 0.06 µg/mL (≈ 0.107 µM) | 8 µg/mL (≈ 14.2 µM) | 0.5 µg/mL (≈ 0.889 µM) | 0.06 µg/mL (≈ 0.107 µM)
15 | CCn1cc(C(=O)O)c(=O)c2cc(F)c(N3CCCc4cc(N5C[C@H](CNC(C)=O)OC5=O)ccc4C3)nc21 [Example 17, 7-{7-[5-(Acetylamino-methyl)-2-oxo-oxazolidin-3-yl]-1,3,4,5-tetrahydro-benzo[c]azepin-2-yl}-1-ethyl-6-fluoro-4-oxo-1,4-dihydro-[1,8]naphthyridine-3-carboxylic Acid] | – | – | – | – | – | – | – | 64 µg/mL (≈ 119 µM) | 64 µg/mL (≈ 119 µM) | 64 µg/mL (≈ 119 µM) | 64 µg/mL (≈ 119 µM) | 64 µg/mL (≈ 119 µM) | 0.5 µg/mL (≈ 0.93 µM)
